Source: ChEMBL document CHEMBL5584201, “Amphiphilic tribasic galactosamines potentiate rifampicin in Gram-negative bacteria at low Mg++/Ca++concentrations” (Bioorg Med Chem Lett, 2024)
Values after ≈ are worked out from the molar mass of the structure shown.

Tests used:
Pseudomonas aeruginosa [1] = test: Antibacterial activity against Pseudomonas aeruginosa PAO1 in low salt containing media by Mueller-Hinton broth based assay; format: functional
Acinetobacter baumannii [2] = test: Antibacterial activity against Acinetobacter baumannii ATCC 17978 in low salt containing media by Mueller-Hinton broth based assay; format: functional
Escherichia coli [3] = test: Antibacterial activity against Escherichia coli ATCC 25922 in low salt containing media by Mueller-Hinton broth based assay; format: functional
Pseudomonas aeruginosa [4] = test: Potentiation of rifampicin-induced antibacterial activity against Pseudomonas aeruginosa PAO1 assessed as rifampicin MIC in low salt containing media by Mueller-Hinton broth based assay; format: functional
Acinetobacter baumannii [5] = test: Potentiation of rifampicin-induced antibacterial activity against Acinetobacter baumannii ATCC 17978 assessed as rifampicin MIC in low salt containing media by Mueller-Hinton broth based assay; format: functional
Escherichia coli [6] = test: Potentiation of rifampicin-induced antibacterial activity against Escherichia coli ATCC 25922 assessed as rifampicin MIC in low salt containing media by Mueller-Hinton broth based assay; format: functional
Pseudomonas aeruginosa [7] = test: Potentiation of rifampicin-induced antibacterial activity against Pseudomonas aeruginosa PAO1 assessed as fold change in rifampicin MIC in low salt containing media by Mueller-Hinton broth based assay; format: functional
Acinetobacter baumannii [8] = test: Potentiation of rifampicin-induced antibacterial activity against multidrug resistant Acinetobacter baumannii clinical isolate 92247 assessed as fold change in rifampicin MIC at 1/4 MIC in low salt containing media by Mueller-Hinton broth based assay; format: functional
Acinetobacter baumannii [9] = test: Potentiation of rifampicin-induced antibacterial activity against multidrug resistant Acinetobacter baumannii clinical isolate 110193 assessed as fold change in rifampicin MIC at 1/4 MIC in low salt containing media by Mueller-Hinton broth based assay; format: functional
Acinetobacter baumannii [10] = test: Potentiation of rifampicin-induced antibacterial activity against multidrug resistant Acinetobacter baumannii LAC-4 assessed as fold change in rifampicin MIC at 1/4 MIC in low salt containing media by Mueller-Hinton broth based assay; format: functional
Escherichia coli [11] = test: Potentiation of rifampicin-induced antibacterial activity against Escherichia coli clinical isolate 94393 assessed as fold change in rifampicin MIC at 1/4 MIC in low salt containing media by Mueller-Hinton broth based assay; format: functional
Escherichia coli [12] = test: Potentiation of rifampicin-induced antibacterial activity against Escherichia coli clinical isolate 107115 assessed as fold change in rifampicin MIC at 1/4 MIC in low salt containing media by Mueller-Hinton broth based assay; format: functional
Pseudomonas aeruginosa [13] = test: Antibacterial activity against Pseudomonas aeruginosa PA262 in high concentration of Ca++ and Mg++ containing media by Mueller-Hinton broth based assay; format: functional
Acinetobacter baumannii [14] = test: Antibacterial activity against Acinetobacter baumannii ATCC 17978 in high concentration of Ca++ and Mg++ containing media by Mueller-Hinton broth based assay; format: functional
Acinetobacter baumannii [15] = test: Antibacterial activity against Acinetobacter baumannii 92247 in high concentration of Ca++ and Mg++ containing media by Mueller-Hinton broth based assay; format: functional
Escherichia coli [16] = test: Antibacterial activity against Escherichia coli ATCC 25922 in high concentration of Ca++ and Mg++ containing media by Mueller-Hinton broth based assay; format: functional
Escherichia coli [17] = test: Antibacterial activity against Escherichia coli […] in high concentration of Ca++ and Mg++ containing media by Mueller-Hinton broth based assay; format: functional
Pseudomonas aeruginosa [18] = test: Potentiation of rifampicin-induced antibacterial activity against Pseudomonas aeruginosa PA262 assessed as rifampicin MIC at 2 to 8 microg/ml in high concentration of Ca++ and Mg++ containing media by Mueller-Hinton broth based assay; format: functional; conditions: dose 2-8 µg/ml
Acinetobacter baumannii [19] = test: Potentiation of rifampicin-induced antibacterial activity against Acinetobacter baumannii 92247 assessed as rifampicin MIC at 2 to 8 microg/ml in high concentration of Ca++ and Mg++ containing media by Mueller-Hinton broth based assay; format: functional; conditions: dose 2-8 µg/ml
Escherichia coli [20] = test: Potentiation of rifampicin-induced antibacterial activity against Escherichia coli ATCC 25922 assessed as rifampicin MIC at 2 to 8 microg/ml in high concentration of Ca++ and Mg++ containing media by Mueller-Hinton broth based assay; format: functional; conditions: dose 2-8 µg/ml
Escherichia coli [21] = test: Potentiation of rifampicin-induced antibacterial activity against Escherichia coli […] assessed as rifampicin MIC at 2 to 8 microg/ml in high concentration of Ca++ and Mg++ containing media by Mueller-Hinton broth based assay; format: functional; conditions: dose 2-8 µg/ml
Acinetobacter baumannii [22] = test: Potentiation of rifampicin-induced antibacterial activity against Acinetobacter baumannii ATCC 17978 assessed as fold change in rifampicin MIC at 2 to 8 microg/ml in high concentration of Ca++ and Mg++ containing media by Mueller-Hinton broth based assay; format: functional; conditions: dose 2-8 µg/ml
Acinetobacter baumannii [23] = test: Potentiation of rifampicin-induced antibacterial activity against Acinetobacter baumannii 92247 assessed as fold change in rifampicin MIC at 2 to 8 microg/ml in high concentration of Ca++ and Mg++ containing media by Mueller-Hinton broth based assay; format: functional; conditions: dose 2-8 µg/ml
Escherichia coli [24] = test: Potentiation of rifampicin-induced antibacterial activity against Escherichia coli ATCC 25922 assessed as fold change in rifampicin MIC at 2 to 8 microg/ml in high concentration of Ca++ and Mg++ containing media by Mueller-Hinton broth based assay; format: functional; conditions: dose 2-8 µg/ml
Acinetobacter baumannii [25] = test: Potentiation of rifampicin-induced antibacterial activity against Acinetobacter baumannii ATCC 17978 assessed as rifampicin MIC at 16 microg/ml in high concentration of Ca++ and Mg++ containing media by Mueller-Hinton broth based assay; format: functional; conditions: dose 16 µg/ml
Acinetobacter baumannii [26] = test: Potentiation of rifampicin-induced antibacterial activity against Acinetobacter baumannii 92247 assessed as rifampicin MIC at 16 microg/ml in high concentration of Ca++ and Mg++ containing media by Mueller-Hinton broth based assay; format: functional; conditions: dose 16 µg/ml
Escherichia coli [27] = test: Potentiation of rifampicin-induced antibacterial activity against Escherichia coli ATCC 25922 assessed as rifampicin MIC at 16 microg/ml in high concentration of Ca++ and Mg++ containing media by Mueller-Hinton broth based assay; format: functional; conditions: dose 16 µg/ml
Escherichia coli [28] = test: Potentiation of rifampicin-induced antibacterial activity against Escherichia coli […] assessed as rifampicin MIC at 16 microg/ml in high concentration of Ca++ and Mg++ containing media by Mueller-Hinton broth based assay; format: functional; conditions: dose 16 µg/ml
Acinetobacter baumannii [29] = test: Potentiation of rifampicin-induced antibacterial activity against Acinetobacter baumannii 92247 assessed as fold change in rifampicin MIC at 16 microg/ml in high concentration of Ca++ and Mg++ containing media by Mueller-Hinton broth based assay; format: functional; conditions: dose 16 µg/ml
Escherichia coli [30] = test: Potentiation of rifampicin-induced antibacterial activity against Escherichia coli ATCC 25922 assessed as fold change in rifampicin MIC at 16 microg/ml in high concentration of Ca++ and Mg++ containing media by Mueller-Hinton broth based assay; format: functional; conditions: dose 16 µg/ml
Escherichia coli [31] = test: Potentiation of rifampicin-induced antibacterial activity against Escherichia coli […] assessed as fold change in rifampicin MIC at 16 microg/ml in high concentration of Ca++ and Mg++ containing media by Mueller-Hinton broth based assay; format: functional; conditions: dose 16 µg/ml
[32] = Cytotoxicity against HEK293 cells assessed as cell viability at 9 uM relative to control; format: toxicity, cell-based; conditions: human, read-out: Activity
[33] = Cytotoxicity against human HepG2 cells assessed as cell viability at 9 uM relative to control; format: toxicity, cell-based; conditions: read-out: Activity

CCCCCCCCO[C@@H]1O[C@H](CN)[C@H](N)[C@H](OCc2ccc3ccccc3c2)[C@H]1N
MIC (Pseudomonas aeruginosa [1]): 32 µg/mL
MIC (Acinetobacter baumannii [2]): 16 µg/mL
MIC (Escherichia coli [3]): 8 µg/mL
MIC (Pseudomonas aeruginosa [4]): 8 µg/mL
MIC (Acinetobacter baumannii [5]): 4 µg/mL
MIC (Escherichia coli [6]): 2 µg/mL
fold change (FC) (Pseudomonas aeruginosa [7]): 2
fold change (FC) (Acinetobacter baumannii [8]): 64
fold change (FC) (Acinetobacter baumannii [9]): 64
fold change (FC) (Acinetobacter baumannii [10]): 64
fold change (FC) (Escherichia coli [11]): 64
fold change (FC) (Escherichia coli [12]): 64
MIC (Pseudomonas aeruginosa [13]): > 128 µg/mL
MIC (Acinetobacter baumannii [14]): ≥ 64 µg/mL
MIC (Acinetobacter baumannii [15]): ≥ 64 µg/mL
MIC (Escherichia coli [16]): 64 µg/mL (≈ 149 µM)
MIC (Escherichia coli [17]): 64 µg/mL (≈ 149 µM)
MIC (Pseudomonas aeruginosa [18]): 8 µg/mL
MIC (Acinetobacter baumannii [19]): 4 µg/mL
MIC (Escherichia coli [20]): 2 µg/mL
MIC (Escherichia coli [21]): 2 µg/mL
fold change (FC) (Acinetobacter baumannii [22]): 1
fold change (FC) (Acinetobacter baumannii [23]): 2
fold change (FC) (Escherichia coli [24]): 1
MIC (Acinetobacter baumannii [25]): 16 µg/mL
MIC (Acinetobacter baumannii [26]): 16 µg/mL
MIC (Escherichia coli [27]): 16 µg/mL
MIC (Escherichia coli [28]): 16 µg/mL
fold change (FC) (Acinetobacter baumannii [29]): 32
fold change (FC) (Escherichia coli [30]): 1
fold change (FC) (Escherichia coli [31]): 8
viability at 9 µM [32]: 46.4%
viability at 9 µM [33]: 85%
